Like-named read-outs stand apart in the source and are kept apart here. Blank lines part the entries; values can stand above or below the molecule they belong to.
Columns and labels:
[1] = tested on: HL-60 cells; test: Uptake of [3H]-labeled compounds; type: cell-based, human; settings: [3H]-labeled compound
Protocol: (1R, 2S) 2-(N-[^3 H]-myristoylamino)-1-phenyl-1propanol ([^3 H] C14-L-e-APP-1) and (1S, 2R) 2-(N-[^3 H]-myristoylamino)-1-phenyl-1-propanol ([^3 H]C14-D-e-APP-1) were prepared following the general procedures of Example 1 for synthesis of N-acyl-amino alcohols using [^3 H]-myristoyl chloride. Specific activity was ~3×10^3 cpms/nmol. [^3 H] myristoyl chloride was made from 9,10-[^3 H]-myristic acid and oxalyl chloride in dry benzene.
In studies using [^3 H]-labeled C14-D-e-APP-1 and C14-L-e-APP-1, uptake of the two compounds was nearly identical with 21% of [3 H]-C14-D-e-APP-1 taken up and 20% of [3 H]-C14-L-e-APP-1 taken up.

[2] = tested on: HL-60 cells; test: HL-60 differentiation, H2O2 generation; type: cell-based, human
Protocol: (§1) Human myelocytic leukemia HL-60 cells (20-45 passages (American Type Culture Collection, Rockville, Md., accession no. CCL 240) were obtained and grown in RPMI 1640 medium (Sigma Chemical Co., St. Louis, Mo.) containing 10% fetal calf serum at 37° C. in 5% CO2 incubator at a cell density of 2×10^5 cells/mi. The cells were washed once with phosphate buffered saline (PBS) and resuspended in serum-free media containing insulin (5 mg/liter) and transferrin (5 mg/liter) for 2-3 hours before treatment with various compounds.
Therefore, 3 μM C14-L-t-APPD was applied to HL-60 cells either alone or in combination with subthreshold levels (0.3 nM) of 1,25-dihydroxyvitamin D3 (D3), and cell differentiation was determined at 60 and 108 hours following treatment by quantitating […] generation, a marker of HL-60 differentiation. Subthreshold levels of D3 refers to levels of D3 that are too low to induce differentiation of HL60 cells.
H2 O2 production was quantitated as described in Goodwin, B. J. and Weinberg, J. B., J. Clin. Invest. 70:699-706 (1982) and Pick, E. and Mizel, D. J. Immunol. Methods 46: 211-226 (1981). For comparison, HL60 cell differentiation obtained with 2 μM C2-ceramide alone and 0.3 nM vitamin D3 are were also determined.

[3] = tested on: sphingomyelin in HL-60 cells; settings: previous study, Okazaki, T., et al.; cited from earlier work
[4] = tested on: HL-60 cells; test: HL-60 differentiation, reduction of Nitro blue tetrazolium (NBT); type: cell-based, human; settings: 3 μM, three days; for cells acquiring the ability to reduce NBT: control cells 10%
Protocol: as §1
HL-60 cells were treated with 3 μM of C14-D-e-APP-1 or 3 μM C14-L-e-APP-1 for three days in accordance with the procedure described in Example 3D. Cell differentiation was determined by the ability of differentiated cells to reduce Nitro blue tetrazolium (NBT) as described in Okazaki, T. et. al., J. Biol. Chem. 265:15823-15831 (1990).

[5] = tested on: HL-60 cells; test: HL-60 cell growth/proliferation, cells counted with a hemocytometer; type: cell-based, human; settings: for activity at 1 µM / activity at 2 µM / activity at 3 µM / activity at 4 µM / activity at 5 µM / IC50: Homo sapiens; for IC50: read-out: IC50%; for cell density: starting density 2×10^5 cells/ml
Protocol: as §1
HL-60 cells were treated with 3 μM of Cn-L-t-APPD with acyl chain lengths of C6, C8, C10, C12, C14, C16, and C18 (m=4, 6, 8, 10, 12, 14 and 16) in fresh ehtanol solution or with an ethanol vehicle and cell growth was determined following three days of treatment. Cell growth was quantified using a hemocytometer. Cell viability was judged by the ability to exclude trypan blue dye. Viability was always more than 80% unless otherwise described.
HL-60 cells (starting cell density of 2×10^5 cells/ml) were treated with different concentrations of C14-L-t-APPD and cells were counted following 24 and 72 hours of treatment. The results are representative of three experiments. A 1μM dose of C14-L-t-APPD had little or no effect on cell growth at 24 or 72 hours (approximately 105% and 130% of control, respectively). A 2μM dose inhibited cell growth to approximately 65% of the control at both 24 and 72 hours. […] The IC50% was approximately 2 μM (10 fmol/cell). IC50% is the concentration of test compound that causes 50% inhibition of cell growth in comparison with controls. Thus, similar to results with C2-ceramide, C14-APPD inhibited cell proliferation at different durations of treatment.
HL-60 cells (starting cell density of 2×10^5 cells/ml) were treated with 3 μM Cn-L-t-APPD derivatives with N-acyl chain lengths of C6, C8, C10, C12, C14, C16, and C18 (m=4,6,8,10, 12, 14, and 16) and cells were counted at 0, 12, 36, 60, 84 and 108 hours post treatment. The results are representative of 3 experiments.
N-acyl derivatives of 2-amino-1-(4'-nitrophenyl)-1,3-propanediol (Cn-D-t-ANPPD) were tested to determine the effects of chain length on HL-60 cell growth as described in Examples 3 A. HL-60 cells (at a starting cell density of 2×10^5 cells/ml) were treated with 3 μM of the diff analogs (C6, C8, C10, C12, C14, C16 and C18) of Cn-D-t-ANPPD, and cell growth was determined at three days. The control received no Cn-D-t-ANPPD. Treatment of HL-60 cells with C2-ceramide is included for comparison.
HL-60 cells were treated with the indicated concentrations and cell growth was determined following three days of treatment as described in Example 3B.
The suitability of phenylaminopropanediol derivatives as analogs of ceramide allowed further investigation of the structural requirements for ceramide-mediated biology. For these experiments, C14 (N-myristoyl) derivatives of different phenylaminoalcohols were synthesized and examined for their biologic activity. HL-60 cells (starting cell density of 2×10^5 cells/ml) were treated with 3 μM of C14 derivatives C14-L-t-APPD, C14-D-t-ANPPD, C14-D-e-APP-1, C14-L-e-APP-1, C14-APP-3 and C14-D-APP3. The structures of these compounds are provided in Table I. Cell growth was determined at 3 days as described in Example 3A. The results shown are averages of two determinations, and are representative of five different experiments.
and C14-L-e-APP-1 HL-60 cells were treated as described in Example 3B. growth was determined after 3 days of treatment.

[6] = tested on: HL-60 cells; settings: Okazaki et al.; cited from earlier work
[7] = tested on: HL-60 cells; settings: Okazaki et al.; cited from earlier work; remark: listed apart in the source
[8] = Example 5, 3 μM C14 derivatives, 3 days
[9] = HL-60, 72 h, Example 5, Table IV, 3 days, read-out: CELL GROWTH (% OF CONTROL)
[10] = HL-60, 72 h, Example 5, Table IV, 3 μM, 3 days, read-out: CELL GROWTH (% OF CONTROL)
[11] = HL-60, 24 h, Example 3B, 24 hours, read-out: cell growth, % of control
[12] = HL-60, 72 h, Example 3B, 72 hours, read-out: cell growth, % of control

uptake [1]: 20%
SMILES: [3H]C(CCCC)C([3H])CCCCCCCC(=O)N[C@@H](C)[C@H](O)c1ccccc1 (stereo partly drawn) [[3 H]-C14-L-e-APP-1, (1R, 2S) 2-(N-[^3 H]-myristoylamino)-1-phenyl-1propanol]

uptake [1]: 21%
SMILES: [3H]C(CCCC)C([3H])CCCCCCCC(=O)N[C@H](C)[C@@H](O)c1ccccc1 (stereo partly drawn) [[3 H]-C14-D-e-APP-1, (1S, 2R) 2-(N-[^3 H]-myristoylamino)-1-phenyl-1-propanol]

SMILES: C=C1/C(=C\C=C2/CCC[C@]3(C)[C@@H]([C@H](C)CCCC(C)(C)O)CC[C@@H]23)C[C@@H](O)C[C@@H]1O [1,25-dihydroxyvitamin D3, reference compound]
H2O2 generation ([2]; 0.3 nM 1,25-dihydroxyvitamin D3, 60 hours): approximately 0.4 nmol H2O2 /10^5 cells
H2O2 generation ([2]; 0.3 nM 1,25-dihydroxyvitamin D3, 108 hours): ~0.2 nmol/10^5 cells
hydrolysis of sphingomyelin (in words) [3]: caused hydrolysis of sphingomyelin in HL-60 cells

SMILES: CCCCCCCCCCCCCC(=O)N[C@@H](C)[C@H](O)c1ccccc1 [C14-L-e-APP-1]
level of differentiation (in words) ([4]; NBT reduction): little activity over control
cells acquiring the ability to reduce NBT [4]: 12%
inhibition of HL-60 cell growth (in words) ([5]; Example 5, Table IV experiment, 1-5 μM, 3 days): no activity
cell growth, % of control [5, 8]: 87%
activity at 1 µM [5, 9]: 101%
activity at 2 µM [5, 9]: 100%
activity at 3 µM [5, 10]: 99%
activity at 4 µM [5, 9]: 100%
activity at 5 µM [5, 9]: 99%

IC50% per cell number ([5]; Example 5, Table IV experiment, HL-60 growth, 3 days): 125 fmol/10^5 cells
IC50 ([5]; 72 h, Example 5, Table IV experiment, HL-60 growth, 3 days): 2500 nM
SMILES: CCCCCCCCCCCCCC(=O)N[C@H](C)[C@@H](O)c1ccccc1 [C14-D-e-APP-1]
cells acquiring the ability to reduce NBT [4]: 42%
cell growth, % of control [5, 8]: approximately 15%
activity relative to reference (in words) ([5]; Example 5, 3 μM, 3 days, inhibition of cell growth): as effective as C2-ceramide
activity at 1 µM [5, 9]: 100%
activity at 2 µM [5, 9]: 71%
activity at 3 µM [5, 10]: 45%
activity at 4 µM [5, 9]: 20%
activity at 5 µM [5, 9]: 10%

IC50% per cell ([5]; Example 3B, 50% inhibition of cell growth, 2×10^5 cells/ml): approximately 10 fmol/cell
IC50 ([5]; HL-60, Example 3B, 50% inhibition of cell growth, 2×10^5 cells/ml, 24 and 72 hours): ~2000 nM
SMILES: CCCCCCCCCCCCCC(=O)N[C@@H](CO)[C@@H](O)c1ccccc1 [C14-L-t-APPD, N-MYRISTOYL-L-THREO-2-AMINO-1-PHENYL-1,3-PROPANDIOL]
effect of combination on cell differentiation (in words) ([2]; 3 μM C14-L-t-APPD + 0.3 nM 1,25-dihydroxyvitamin D3): synergistic effect on cell differentiation
H2O2 generation, combination ([2]; 3 μM C14-L-t-APPD + 0.3 nM 1,25-dihydroxyvitamin D3, 60 hours): approximately 1.1 nmol H2O2 /10^5 cells
H2O2 generation, combination ([2]; 3 μM C14-L-t-APPD + 0.3 nM 1,25-dihydroxyvitamin D3, 108 hours): ~1.0 nmol H2O2 /10^5 cells
H2O2 generation ([2]; 3 μM C14-L-t-APPD alone, 60 hours): approximately 0.3 nmol/10^5 cells
H2O2 generation ([2]; 3 μM C14-L-t-APPD alone, 108 hours): ~0.5 nmol/10^5 cells
effect on differentiation relative to C2-ceramide (in words) ([2]; 3 μM C14-L-t-APPD vs 2 μM C2-ceramide): nearly identical to those of 2 μM C2-ceramide
cell growth, % of control ([5]; Example 3A, 3 μM Cn-L-t-APPD, three days): ~15%
potency relative to C2-ceramide (in words) ([5]; Example 3C, 3 μM): equally potent to C2-ceramide
cell density ([5]; Example 3C, 3 μM, 84 hours): 100000 mL⁻¹
cell density ([5]; Example 3C, 3 μM, 108 hours): 200000 mL⁻¹
inhibition of cell growth (in words) ([5]; Example 3C, 3 μM, time course to 108 hours): able to inhibit cell growth by significant amounts
activity at 1 µM [5, 11]: ~105%
activity at 2 µM [5, 11]: ~65%
activity at 3 µM ([5]; HL-60, 24 h, Example 3B, 3 μM, 24 hours, read-out: cell growth, % of control): < 10%
activity at 4 µM [5, 11]: < 10%
activity at 1 µM [5, 12]: ~130%
activity at 2 µM [5, 12]: ~65%
activity at 3 µM ([5]; HL-60, 72 h, Example 3B, 3 μM, 72 hours, read-out: cell growth, % of control): < 10%
activity at 4 µM [5, 12]: < 10%

SMILES: CCCCCCCCCCCCC/C=C/[C@@H](O)[C@H](CO)NC(C)=O [C2-ceramide, N-acetyl-C18-sphingosine, reference compound]
H2O2 generation ([2]; 2 μM C2-ceramide alone, 60 hours): approximately 0.3 nmol H2O2 /10^5 cells
H2O2 generation ([2]; 2 μM C2-ceramide alone, 108 hours): approximately 0.3 nmol H2O2 /10^5 cells
H2O2 generation, combination ([2]; 2 μM C2-ceramide in combination with 1,25-dihydroxyvitamin D3): approximately 0.9 nmol/10^5 cells
cell density ([5]; Example 3C, C2-ceramide, concentration not given, 108 hours): 200000 mL⁻¹
CELL GROWTH (% OF CONTROL) ([5]; Example 4A, Table II, 3 μM Cn-D-t-ANPPD (C2-ceramide concentration not given), three days): 20 % OF CONTROL
cell growth, % of control [5, 8]: 20%

SMILES: CCCCCCCCCCCCC/C=C/[C@@H](O)[C@@H](N)CO [sphingosine, Sphingosine]
HL-60 cell growth (in words) [6]: inhibit HL-60 cell growth
HL-60 cell differentiation (in words) [7]: do not mimic the effects of ceramide on cell differentiation

From patent publication US5369030A, “Method of inducing cellular differentiations and altering cell phenotype using ceramide analogs” (Duke University, priority 1992, dated 1994)
